Results as given in ChEMBL document CHEMBL5046216, “Disrupting Tryptophan in the Central Hydrophobic Region Selectively Mitigates Immunomodulatory Activities of the Innate Defence Regulator Peptide IDR-1002” (J Med Chem, 2021).
Activity calls are given as the source filed them.

Key:
[1] = Retention time of the compound by HPLC analysis; type: physicochemical
HBEC3-KT [2] = experiment: Cytotoxicity against human HBEC3-KT incubated for 24 hrs by LDH assay; type: functional
Mus musculus [3] = experiment: (§1) Antiinflammatory activity in house dust-mite-induced BALB/c mouse model of methacholine-induced airway hyperreactivity assessed as reduction in methacholine-induced newtonian resistance at 6 mg/kg , ip administered for 2 weeks after methacholine-stimulation at 12 mg/ml measured 24 hrs post-HDM challenge; type: functional, organism-based
Mus musculus [4] = experiment: Effect on IL-9 level in dust-mite-induced BALB/c mouse model of airway inflammation assessed as greater than 2 fold induction at 6 mg/kg, sc administered for 2 weeks and measured 24 hrs post-HDM challenge by MSD multiplex assay; type: functional, organism-based
Mus musculus [5] = experiment: Antiinflammatory activity in house dust-mite-induced BALB/c mouse model of airway inflammation assessed as suppression of total eosinophil count in BALF at 6 mg/kg, sc administered for 2 weeks and measured 24 hrs post-HDM challenge by Wright-Giemsa staining based microscopy; type: functional
Mus musculus [6] = experiment: Antiinflammatory activity in house dust-mite-induced BALB/c mouse model of airway inflammation assessed as suppression of total leukocyte count in BALF at 6 mg/kg, sc administered for 2 weeks and measured 24 hrs post-HDM challenge by Wright-Giemsa staining based microscopy; type: functional
Mus musculus [7] = experiment: Effect on MCP1 level in dust-mite-induced BALB/c mouse model of airway inflammation assessed as greater than 2 fold induction at 6 mg/kg, sc administered for 2 weeks and measured 24 hrs post-HDM challenge by MSD multiplex assay; type: functional, organism-based
HBEC3-KT [8] = experiment: Antiinflammatory activity in INFgamma-induced MCP1 expressed in human HBEC3-KT cells assessed as fold change measured after 24 hrs by ELISA relative to control; type: functional
Mus musculus [9] = experiment: Effect on IL-1beta level in dust-mite-induced BALB/c mouse model of airway inflammation assessed as greater than 2 fold induction at 6 mg/kg, sc administered for 2 weeks and measured 24 hrs post-HDM challenge by MSD multiplex assay; type: functional, organism-based
Mus musculus [10] = experiment: Antiinflammatory activity in house dust-mite-induced BALB/c mouse model of methacholine-induced airway hyperreactivity assessed as reduction in methacholine-induced tissue damping at 6 mg/kg , ip administered for 2 weeks after methacholine-stimulation at 12 mg/ml measured 24 hrs post-HDM challenge; type: functional, organism-based
Mus musculus [11] = experiment: Antiinflammatory activity in house dust-mite-induced BALB/c mouse model of methacholine-induced airway hyperreactivity assessed as reduction in methacholine-induced tissue damping at 6 mg/kg , ip administered for 2 weeks after methacholine-stimulation at 50 mg/ml measured 24 hrs post-HDM challenge; type: functional; design: scale not given: the % may be the effect or the level left
Mus musculus [12] = experiment: Effect on IL-17A level in dust-mite-induced BALB/c mouse model of airway inflammation assessed as greater than 2 fold induction at 6 mg/kg, sc administered for 2 weeks and measured 24 hrs post-HDM challenge by MSD multiplex assay; type: functional, organism-based
Mus musculus [13] = experiment: Effect on IL-31 level in dust-mite-induced BALB/c mouse model of airway inflammation assessed as greater than 2 fold induction at 6 mg/kg, sc administered for 2 weeks and measured 24 hrs post-HDM challenge by MSD multiplex assay; type: functional, organism-based
Mus musculus [14] = experiment: Antiinflammatory activity in house dust-mite-induced BALB/c mouse model of airway inflammation assessed as suppression of total neutrophil count in BALF at 6 mg/kg, sc administered for 2 weeks and measured 24 hrs post-HDM challenge by Wright-Giemsa staining based microscopy; type: functional
Mus musculus [15] = experiment: Effect on KC 10 level in dust-mite-induced BALB/c mouse model of airway inflammation assessed as greater than 2 fold induction at 6 mg/kg, sc administered for 2 weeks and measured 24 hrs post-HDM challenge by MSD multiplex assay; type: functional, organism-based
Mus musculus [16] = experiment: Effect on IL-25 level in dust-mite-induced BALB/c mouse model of airway inflammation assessed as greater than 2 fold induction at 6 mg/kg, sc administered for 2 weeks and measured 24 hrs post-HDM challenge by MSD multiplex assay; type: functional, organism-based
Mus musculus [17] = experiment: Effect on IL-6 level in dust-mite-induced BALB/c mouse model of airway inflammation assessed as greater than 2 fold induction at 6 mg/kg, sc administered for 2 weeks and measured 24 hrs post-HDM challenge by MSD multiplex assay; type: functional, organism-based
Mus musculus [18] = experiment: Effect on IL-23 level in dust-mite-induced BALB/c mouse model of airway inflammation assessed as greater than 2 fold induction at 6 mg/kg, sc administered for 2 weeks and measured 24 hrs post-HDM challenge by MSD multiplex assay; type: functional, organism-based
Mus musculus [19] = experiment: Antiinflammatory activity in house dust-mite-induced BALB/c mouse model of methacholine-induced airway hyperreactivity assessed as reduction in methacholine-induced tissue elastance at 6 mg/kg , ip administered for 2 weeks after methacholine-stimulation at 12 mg/ml measured 24 hrs post-HDM challenge; type: functional, organism-based
Mus musculus [20] = experiment: Effect on TNF 1 level in dust-mite-induced BALB/c mouse model of airway inflammation assessed as greater than 2 fold induction at 6 mg/kg, sc administered for 2 weeks and measured 24 hrs post-HDM challenge by MSD multiplex assay; type: functional, organism-based
HBEC3-KT [21] = experiment: Antiinflammatory activity in human HBEC3-KT cells assessed as fold increase in IL-1RA expression at 10 uM measured after 24 hrs by ELISA relative to control; type: functional
Mus musculus [22] = experiment: Effect on IL-12p70 level in dust-mite-induced BALB/c mouse model of airway inflammation assessed as greater than 2 fold induction at 6 mg/kg, sc administered for 2 weeks and measured 24 hrs post-HDM challenge by MSD multiplex assay; type: functional, organism-based
Mus musculus [23] = experiment: Effect on IL-10 level in dust-mite-induced BALB/c mouse model of airway inflammation assessed as greater than 2 fold induction at 6 mg/kg, sc administered for 2 weeks and measured 24 hrs post-HDM challenge by MSD multiplex assay; type: functional, organism-based
Mus musculus [24] = experiment: Effect on IL-2 level in dust-mite-induced BALB/c mouse model of airway inflammation assessed as greater than 2 fold induction at 6 mg/kg, sc administered for 2 weeks and measured 24 hrs post-HDM challenge by MSD multiplex assay; type: functional, organism-based
Mus musculus [25] = experiment: Effect on IL-21 level in dust-mite-induced BALB/c mouse model of airway inflammation assessed as greater than 2 fold induction at 6 mg/kg, sc administered for 2 weeks and measured 24 hrs post-HDM challenge by MSD multiplex assay; type: functional, organism-based
HBEC3-KT [26] = experiment: Immunomodulatory activity in human HBEC3-KT cells assessed as suppression of INFgamma-induced IL-33 at 10 uM preincubated for 30 mins followed by INFgamma stimulation and measured after 24 hrs by Western blot analysis; type: functional
Mus musculus [27] = experiment: Effect on MIP3alpha level in dust-mite-induced BALB/c mouse model of airway inflammation assessed as greater than 2 fold induction at 6 mg/kg, sc administered for 2 weeks and measured 24 hrs post-HDM challenge by MSD multiplex assay; type: functional, organism-based
Mus musculus [28] = experiment: Effect on IP10 level in dust-mite-induced BALB/c mouse model of airway inflammation assessed as greater than 2 fold induction at 6 mg/kg, sc administered for 2 weeks and measured 24 hrs post-HDM challenge by MSD multiplex assay; type: functional, organism-based
Mus musculus [29] = experiment: Effect on IL-5 level in dust-mite-induced BALB/c mouse model of airway inflammation assessed as greater than 2 fold induction at 6 mg/kg, sc administered for 2 weeks and measured 24 hrs post-HDM challenge by MSD multiplex assay; type: functional, organism-based
Mus musculus [30] = experiment: Effect on IL-4 level in dust-mite-induced BALB/c mouse model of airway inflammation assessed as greater than 2 fold induction at 6 mg/kg, sc administered for 2 weeks and measured 24 hrs post-HDM challenge by MSD multiplex assay; type: functional, organism-based
Mus musculus [31] = experiment: Antiinflammatory activity in house dust-mite-induced BALB/c mouse model of methacholine-induced airway hyperreactivity assessed as reduction in methacholine-induced tissue elastance at 6 mg/kg , ip administered for 2 weeks after methacholine-stimulation at 50 mg/ml measured 24 hrs post-HDM challenge; type: functional; design: scale not given: the % may be the effect or the level left
Mus musculus [32] = experiment: Effect on MIP2 level in dust-mite-induced BALB/c mouse model of airway inflammation assessed as greater than 2 fold induction at 6 mg/kg, sc administered for 2 weeks and measured 24 hrs post-HDM challenge by MSD multiplex assay; type: functional, organism-based
Mus musculus [33] = experiment: Effect on IL-17AF level in dust-mite-induced BALB/c mouse model of airway inflammation assessed as greater than 2 fold induction at 6 mg/kg, sc administered for 2 weeks and measured 24 hrs post-HDM challenge by MSD multiplex assay; type: functional, organism-based
[34] = Stability of the compound in human HBEC3-KT cells assessed as compound degradation ay 10 uM measured after 16 hrs by FRET assay relative to control; type: functional
Mus musculus [35] = experiment: Effect on IL-30 level in dust-mite-induced BALB/c mouse model of airway inflammation assessed as greater than 2 fold induction at 6 mg/kg, sc administered for 2 weeks and measured 24 hrs post-HDM challenge by MSD multiplex assay; type: functional, organism-based
HBEC3-KT [36] = experiment: Antiinflammatory activity in human HBEC3-KT cells assessed as effect on MCP1 expression measured after 24 hrs by ELISA relative to control; type: functional, cell-based
Mus musculus [37] = experiment: Effect on IL-15 level in dust-mite-induced BALB/c mouse model of airway inflammation assessed as greater than 2 fold induction at 6 mg/kg, sc administered for 2 weeks and measured 24 hrs post-HDM challenge by MSD multiplex assay; type: functional, organism-based
Mus musculus [38] = experiment: Effect on IL-22 level in dust-mite-induced BALB/c mouse model of airway inflammation assessed as greater than 2 fold induction at 6 mg/kg, sc administered for 2 weeks and measured 24 hrs post-HDM challenge by MSD multiplex assay; type: functional, organism-based
Mus musculus [39] = experiment: Effect on IFNgamma level in dust-mite-induced BALB/c mouse model of airway inflammation assessed as greater than 2 fold induction at 6 mg/kg, sc administered for 2 weeks and measured 24 hrs post-HDM challenge by MSD multiplex assay; type: functional, organism-based
HBEC3-KT [40] = experiment: Antiinflammatory activity in human HBEC3-KT cells assessed as fold increase in STC1 expression at 10 uM measured after 24 hrs by ELISA relative to control; type: functional
Mus musculus [41] = experiment: Effect on IL-17F level in dust-mite-induced BALB/c mouse model of airway inflammation assessed as greater than 2 fold induction at 6 mg/kg, sc administered for 2 weeks and measured 24 hrs post-HDM challenge by MSD multiplex assay; type: functional, organism-based
Mus musculus [42] = experiment: Antiinflammatory activity in house dust-mite-induced BALB/c mouse model of airway inflammation assessed as suppression of IL-33 abundance in lung tissue lysate at 6 mg/kg, sc administered for 2 weeks and measured 24 hrs post-HDM challenge by ELISA; type: functional
Mus musculus [43] = experiment: Effect on IL-17C level in dust-mite-induced BALB/c mouse model of airway inflammation assessed as greater than 2 fold induction at 6 mg/kg, sc administered for 2 weeks and measured 24 hrs post-HDM challenge by MSD multiplex assay; type: functional, organism-based
Mus musculus [44] = experiment: Effect on MIP1alpha level in dust-mite-induced BALB/c mouse model of airway inflammation assessed as greater than 2 fold induction at 6 mg/kg, sc administered for 2 weeks and measured 24 hrs post-HDM challenge by MSD multiplex assay; type: functional, organism-based
Mus musculus [45] = experiment: as §1, with “50” for “12”; type: functional; design: scale not given: the % may be the effect or the level left

H-VLRWLIVWRIRK-OH
50%: Activity (HBEC3-KT [2])
17.4 min: Retention_time [1]

H-VQRWLIVRRIRK-OH
14.04 min: Retention_time [1]
inactive: Activity (Mus musculus [4]) | Activity (Mus musculus [5]) | Activity (Mus musculus [6]) | Activity (Mus musculus [7]) | fold change (FC) (HBEC3-KT [8]) | Activity (Mus musculus [9]) | Activity (Mus musculus [12]) | Activity (Mus musculus [13]) | Activity (Mus musculus [14]) | Activity (Mus musculus [15]) | Activity (Mus musculus [16]) | Activity (Mus musculus [17]) | Activity (Mus musculus [18]) | Activity (Mus musculus [20]) | Activity (HBEC3-KT [21]) | Activity (Mus musculus [22]) | Activity (Mus musculus [23]) | Activity (Mus musculus [24]) | Activity (Mus musculus [25]) | Activity (HBEC3-KT [26]) | Activity (Mus musculus [27]) | Activity (Mus musculus [28]) | Activity (Mus musculus [29]) | Activity (Mus musculus [30]) | Activity (Mus musculus [32]) | Activity (Mus musculus [33]) | Activity (Mus musculus [35]) | Activity (HBEC3-KT [36]) | Activity (Mus musculus [37]) | Activity (Mus musculus [38]) | Activity (Mus musculus [39]) | fold change (FC) (HBEC3-KT [40]) | Activity (HBEC3-KT [2]) | Activity (Mus musculus [41]) | Activity (Mus musculus [42]) | Activity (Mus musculus [43]) | Activity (Mus musculus [44])
active: Activity (Mus musculus [3]) | Activity (Mus musculus [10]) | Activity (Mus musculus [19])
39%: Activity (Mus musculus [45])
<5%: Activity [34]
64%: Activity (Mus musculus [11])
63%: Activity (Mus musculus [31])

H-VQRWLIVWVIRK-OH
50%: Activity (HBEC3-KT [2])
18.05 min: Retention_time [1]

H-VQRWLIVIRIRK-OH
14.48 min: Retention_time [1]
50%: Activity (HBEC3-KT [2])
